Measured values: the supplement of paper PMC10307832

Columns and labels:
Assay in all cases: relative viability (nuclei count vs DMSO), 5 days (fraction); higher = more cells survive
[1] = compound: O=C(O)c1ccc2c(c1)nc(Nc1cccc(Cl)c1)c1ccncc12 [Silmitasertib] + CS(=O)(=O)CCNCc1ccc(-c2ccc3ncnc(Nc4ccc(OCc5cccc(F)c5)c(Cl)c4)c3c2)o1 [Lapatinib] (partner 2 µM)
Method in brief: (§1)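 A single step with final 0.05% Triton X-100, 1% formaldehyde and 1 ug/ml Hoechst fixed the cells and stained nuclei 5 days after treatment. Lung cancer cell lines in 1536-well plates had been treated by pin tool the day after seeding with one drug alone or a fixed anchor-drug dose plus five library-drug doses (not always all listed) in √10 steps, and nuclei were counted on 4× images. Relative viability is the ratio of nuclei in treated wells to nuclei in vehicle wells, taken as the median of duplicate plates.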

[2] = compound: O=C(O)c1ccc2c(c1)nc(Nc1cccc(Cl)c1)c1ccncc12 [Silmitasertib] + NC(=O)Nc1cc(-c2cccc(F)c2)sc1C(=O)N[C@H]1CCCNC1 [AZD7762] (partner 0.2 µM)
Method in brief: as §1

[3] = compound: O=C(O)c1ccc2c(c1)nc(Nc1cccc(Cl)c1)c1ccncc12 [Silmitasertib] + O=C(CCCCCCC(=O)Nc1ccccc1)NO [Vorinostat] (partner 1 µM)
Method in brief: as §1

[4] = compound: O=C(O)c1ccc2c(c1)nc(Nc1cccc(Cl)c1)c1ccncc12 [Silmitasertib] + CC(=O)Nc1cccc(-n2c(=O)n(C3CC3)c(=O)c3c(Nc4ccc(I)cc4F)n(C)c(=O)c(C)c32)c1 [Trametinib] (partner 0.02 µM)
Method in brief: as §1

[5] = compound: O=C(O)c1ccc2c(c1)nc(Nc1cccc(Cl)c1)c1ccncc12 [Silmitasertib]
Method in brief: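 Viability here means nuclei in treated wells divided by nuclei in vehicle wells, reported as the median across plates. Only plates with control CV below 25% and at least one doubling passed. Lung cancer cell lines in 1536-well plates were exposed to five √10-spaced library-drug doses for 5 days and counted from 4× Hoechst images in MetaXpress.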

Cell Line	relative viability ([1]; first compound 0.04 µM)	relative viability ([1]; first compound 0.4 µM)	relative viability ([1]; first compound 1.265 µM)	relative viability ([1]; first compound 4 µM)	relative viability ([2]; first compound 0.04 µM)	relative viability ([2]; first compound 0.4 µM)	relative viability ([2]; first compound 1.265 µM)	relative viability ([2]; first compound 4 µM)	relative viability ([3]; first compound 0.04 µM)	relative viability ([3]; first compound 0.4 µM)	relative viability ([3]; first compound 1.265 µM)	relative viability ([3]; first compound 4 µM)	relative viability ([4]; first compound 0.04 µM)	relative viability ([4]; first compound 0.4 µM)	relative viability ([4]; first compound 1.265 µM)	relative viability ([4]; first compound 4 µM)	relative viability ([5]; 0.04 µM)	relative viability ([5]; 0.4 µM)	relative viability ([5]; 1.265 µM)	relative viability ([5]; 4 µM)
NCI-H2170	0.292	0.258	0.276	0.274	0.89	0.554	0.836	0.968	0.81	0.503	0.73	0.683	0.918	0.661	0.833	0.821	1.02	0.712	0.932	0.96
NCI-H1793	0.979	0.728	0.437	0.488	0.725	0.457	0.654	0.515	0.989	0.619	0.718	0.213	0.503	0.425	0.371	0.488	1.09	0.654	0.771	0.529
HCC-366	1.2		0.784	0.12	0.254	0.188	0.371	0.147	0.396	0.221	0.413	0.0566	0.354	0.337	0.318	0.255	0.993	0.794	0.923	0.136
NCI-H1651	1.08	0.997	0.99	0.626	0.505	0.449	0.481	0.675	0.572	0.456	0.335	0.594	0.881	0.714	0.84	0.848	0.974	0.991	1.02	0.989
LC-2-ad	1.06	0.855	0.951	0.233	0.95	0.811	0.797	0.494	0.712	0.573	0.753	0.3	0.987	0.813	0.892	0.772	1.13	0.828	0.976	0.523
HCC-827	0.197		0.193	0.135	0.234		0.214	0.205	0.861		0.241	0.555	0.604		0.406	0.422	1.09		1.14	0.996
LOU-NH91	0.747	0.649	0.548	0.516	0.785	0.745	0.621	0.594	1.06	0.874	0.784	0.514	0.786	0.771	0.722	0.731	1.12	0.917	0.806	0.582
LU99A	1.04	1.03	0.613	0.588	0.339	0.382	0.276	0.283	0.519	0.546	0.482	0.374	0.5	0.549	0.38	0.461	1.03	1.09	0.986	0.752
HOP-62	1.07		0.878	0.229	0.554		0.663	0.385	0.779		0.584	0.388	0.408		0.388	0.549	1.09		1.12	0.542
NCI-H1734	1.14		0.948	0.785	0.555	0.445	0.544	0.513	0.849	0.705	0.874	0.582	0.737	0.664	0.63	0.581	1.07	0.816	0.975	0.691
EKVX	0.236	0.192	0.157	0.144	0.834		0.682	0.642	0.951	0.464	0.541	0.584	0.385		0.269	0.47	1.11	0.617	0.864	0.717
HARA	0.901	0.696	0.608	0.592	0.411	0.289	0.589	0.443	0.627	0.301	0.464	0.416	0.97	0.594	0.419	0.487	1.13	0.678	0.668	0.38
EMC-BAC-2	0.963	0.884	0.66	0.586	1.22	1.04	1.08	0.662	0.595	0.455	0.287	0.169	0.977	0.845	0.684	0.698	1.11	0.806	0.605	0.44
PC-14	0.325	0.347	0.381	0.391	0.336		0.399	0.321	0.893		0.734	0.482	1.07		0.802	0.633	1.2	0.703	1.02	0.735
NCI-H1755	1.03	0.979	1.07	1.16	0.407	0.479	0.528	0.494	0.756	0.633	0.526	0.72	0.74	0.779	0.826	0.864	1.03	0.953	1.05	1.16
NCI-H2087	0.924	0.753	0.727	0.377	1.34	1.1	1.35	0.817	0.669	0.506	0.672	0.589	0.26	0.186	0.135	0.134	1.04	0.596	0.875	0.466
CAL-12T	0.776	0.62	0.533	0.464	0.656	0.7	0.805	0.77	0.891	0.876	0.746	0.525	0.444	0.3	0.394	0.284	1.15	0.892	0.842	0.472

Cell Line	relative viability ([1]; first compound 0.04 µM)	relative viability ([1]; first compound 0.4 µM)	relative viability ([1]; first compound 1.265 µM)	relative viability ([1]; first compound 4 µM)	relative viability ([2]; first compound 0.04 µM)	relative viability ([2]; first compound 0.4 µM)	relative viability ([2]; first compound 1.265 µM)	relative viability ([2]; first compound 4 µM)	relative viability ([3]; first compound 0.04 µM)	relative viability ([3]; first compound 0.4 µM)	relative viability ([3]; first compound 1.265 µM)	relative viability ([3]; first compound 4 µM)	relative viability ([4]; first compound 0.04 µM)	relative viability ([4]; first compound 0.4 µM)	relative viability ([4]; first compound 1.265 µM)	relative viability ([4]; first compound 4 µM)	relative viability ([5]; 0.04 µM)	relative viability ([5]; 0.4 µM)	relative viability ([5]; 1.265 µM)	relative viability ([5]; 4 µM)
NCI-H2085	0.916	0.509	0.674	0.507	0.974	0.702	0.86	0.858	0.837	0.638	0.725	0.548	0.641	0.454	0.423	0.386	1.03	0.779	0.941	0.902
NCI-H650	1.13	0.722	0.525	0.272	1.17	0.524	0.907	0.982	0.626	0.281	0.475	0.244	1.01	0.567	0.666	1.21	1.17	0.567	0.66	0.379
LCLC-97TM1	0.999		1.04	0.192	0.418		0.191	0.128	0.605		0.654	0.119	0.217		0.156	0.145	1.1		0.882	0.403
NCI-H2126	0.803	0.759	0.691	0.544	1.05	0.836	1.09	0.934	0.863	0.607	0.693	0.406	0.578	0.521	0.467	0.501	0.996	0.824	0.939	0.81
201T	1.04	1.04	1.06	1.14	0.636	0.372	0.754	0.682	1.09	0.949	1.02	0.837	0.738	0.709	0.804	0.893	1.08	0.994	1.02	1.06
NCI-H1915	0.994		1.02	0.397	0.752		0.77	0.535	0.54		0.519	0.413	0.334		0.304	0.254	1.01		1.03	0.554
BEN	0.691	0.637	0.589	0.445	0.935	0.674	0.625	0.568	0.648	0.475	0.456	0.545	1.14	0.856	1.02	0.968	1.16	0.795	1	0.885
NCI-H2347	0.944	0.77	0.759	0.508	0.656	0.663	0.531	0.633	0.565	0.502	0.565	0.479	0.264	0.263	0.277	0.266	1.1	0.754	0.98	0.687
H3255	0.239	0.227	0.204	0.169	1.09	0.808	0.807	0.77	0.747	0.772	0.868	0.645	0.651	0.604	0.527	0.565	1.05	0.877	0.946	0.906
NCI-H1975	0.901	0.731	0.719	0.739	0.775		0.647	0.795	0.766		0.687	0.69	0.613		0.297	0.315	1.18		0.904	0.917
NCI-H647	1.37	0.801	0.716	0.328	0.513	0.364	0.404	0.19	0.868	0.666	0.672	0.704	0.524	0.57	0.399	0.431	0.968	0.758	0.723	0.498
A-427	1.06		1.24	0.573	0.852	0.555	0.562	0.445	0.87	0.761	0.954	0.568	0.952	0.595	0.785	0.497	1.07		1.03	0.396
LXF-289	0.931		0.999	1	1.13		1.29	1.28	0.751		0.747	0.862	0.666		0.752	0.836	1.05		1.05	1.02
NCI-H727	1.05	0.608	0.855	0.527	0.773	0.573	0.654	0.543	1.36	0.822	0.83	1.16	0.415	0.338	0.328	0.348	1.18	0.619	0.833	0.894
NCI-H1437	0.865		0.483	0.347	1.2	1.06	1.02	1.06	0.844	0.787	0.701	0.43	0.493	0.466	0.353	0.274	1.04	0.679	0.784	0.737
RERF-LC-KJ	0.859	0.819	0.767	0.516	1.07	0.785	0.763	0.344	0.768	0.517	0.463	0.371	0.926	0.722	0.661	0.541	1.03	0.848	0.823	0.581
